Data published in patent US9169247B2, “Tetrahydro-beta-carboline derivatives, synthesis and use thereof” (Southern Research Institute, priority 2009, dated 2015).
Read-outs that look alike come from different tables or passages of the source.

Legend:
[1] = system: human MDA-MB-231 breast tumor cells; experiment: Growth assay (Cell Titer Glo); assay type: cell-based; conditions: for % Growth Inhibition at 10 μM: mean +/− spread
Protocol: (§1) All human tumor cell lines were obtained from ATCC and grown under standard cell culture conditions at 37° C. in a humidified atmosphere with 5% CO2. Cells were grown in RPMI 1640 supplemented with 5% fetal bovine serum 2 mM glutamine, 100 units/ml penicillin, 100 units/ml streptomycin, and 0.25 μg/ml amphotericin. Cells were harvested at 70 to 90% confluence with trypsin/EDTA and used immediately Cell count and viability was determined by Trypan blue staining followed by hemocytometry. Only cultures displaying >95% cell viability were used for experiments. HMEC were grown according to the specifications from the supplier (Lonzo).
(§2) Tissue culture microtiter 96-well plates were seeded with cells at a density of 5,000 cells/well. The plates were incubated for 18-24 hours prior to any treatment. All test compounds were solubilized in 100% DMSO and diluted with media to obtain a final DMSO concentration of 0.1%. Cell viability was measured 72 hours after treatment by the Cell Titer Glo Assay (Promega), which is a luminescent assay that is an indicator of live cells as a function of metabolic activity and ATP content. The assay was performed according to manufacturer's specifications. Luminescence was measured by a Perkin Elmer Victor® multi-label plate reader.^6
(§3) Dose response curves were analyzed using Prism™ 4 software (GraphPad) to calculate IC50 values using a four parameter logistic equation.

CACO-2 = experiment: Growth assay (Cell Titer Glo); assay type: cell-based; conditions: Homo sapiens; CACO-2 colon; 72 h
Protocol: (§4) Compounds 2a-h were tested for tumor cell growth inhibitory activity using the human breast MDA-MB-231 and ZR75-1 tumor cell lines and the colon CACO-2, SW-1116, and HT-29 tumor cell lines.
as §1, §2, §3

SW1116 = experiment: Growth assay (Cell Titer Glo); assay type: cell-based; conditions: Homo sapiens, SW 1116; SW1116 colon; 72 h
Protocol: as §4, §1, §2, §3

ZR75-1 = experiment: Growth assay (Cell Titer Glo); assay type: cell-based; conditions: Homo sapiens, ZR-75-1; ZR75-1 breast; 72 h
Protocol: as §4, §1, §2, §3

HT-29 = experiment: Growth assay (Cell Titer Glo); assay type: cell-based, human; conditions: HT-29 colon
Protocol: as §4, §1, §2, §3

[2] = Homo sapiens, MDA-MB-231, 72 h, MDA-MB-231 breast, 72 h, Tables 3-5, read-out: IC50 value, μM, growth
[3] = MDA-MB-231, Tables 1 and 2, read-out: Growth Inhibition IC50, μM (95% CI)
[4] = MDA-MB-231 breast, 72 h, Tables 3-5, read-out: IC50 value, μM, growth

Compound	IC50 [1, 2]	IC50 (CACO-2)	IC50 (SW1116)	IC50 (ZR75-1)	IC50 (HT-29; Homo sapiens, HT-29, 72 h)	melting point	% Growth Inhibition at 10 μM ([1]; MDA-MB-231)	IC50 [1, 3]	IC50 [1, 4]	IC50 (HT-29; 72 h)
COC(=O)[C@H]1Cc2c([nH]c3ccccc23)[C@@H](c2ccccc2Br)N1C(=O)CCl [Compound 2a, Methyl (1R,3R)-1-(2-bromophenyl)-2-(2-chloroacetyl)-2,3,4,9-tetrahydro-1H-β-carboline-3-carboxylate]	0.06 µM	0.79 µM	2.79 µM	3.52 µM	1.9 µM	–	–	–	–	–
COC(=O)[C@H]1Cc2c([nH]c3ccccc23)[C@H](c2ccccc2Br)N1C(=O)CCl [Compound 2b, Methyl (1S,3R)-1-(2-bromophenyl)-2-(2-chloroacetyl)-2,3,4,9-tetrahydro-1H-β-carboline-3-carboxylate]	0.02 µM	1.6 µM	4.3 µM	1.1 µM	1.16 µM	–	–	–	–	–
COC(=O)[C@@H]1Cc2c([nH]c3ccccc23)[C@H](c2ccccc2Br)N1C(=O)CCl [Compound 2c, Methyl (1S,3S)-1-(2-bromophenyl)-2-(2-chloroacetyl)-2,3,4,9-tetrahydro-1H-β-carboline-3-carboxylate]	0.02 µM	0.1 µM	2.72 µM	1.1 µM	0.77 µM	–	–	–	–	–
COC(=O)[C@@H]1Cc2c([nH]c3ccccc23)[C@@H](c2ccccc2Br)N1C(=O)CCl [Compound 2d, Methyl (1R,3S)-1-(2-bromophenyl)-2-(2-chloroacetyl)-2,3,4,9-tetrahydro-1H-β-carboline-3-carboxylate]	0.25 µM	0.55 µM	1.05 µM	3.61 µM	3.2 µM	–	–	–	–	–
COC(=O)[C@H]1Cc2c([nH]c3ccccc23)[C@@H](c2cc(OC)ccc2OC)N1C(=O)CCl [Compound 2e, Methyl (1R,3R)-1-(2,5-dimethoxyphenyl)-2-(2-chloroacetyl)-2,3,4,9-tetrahydro-1H-β-carboline-3-carboxylate]	4.25 µM	3.5 µM	7.2 µM	5.7 µM	3.38 µM	108 to 111 °C	–	–	–	–
COC(=O)[C@@H]1Cc2c([nH]c3ccccc23)[C@H](c2cc(OC)ccc2OC)N1C(=O)CCl [Compound 2g, Methyl (1S,3S)-1-(2,5-dimethoxyphenyl)-2-(2-chloroacetyl)-2,3,4,9-tetrahydro-1H-β-carboline-3-carboxylate]	1.6 µM	3.04 µM	3.71 µM	4.13 µM	6.12 µM	105 to 108 °C	–	–	–	–
COC(=O)C1Cc2c([nH]c3ccccc23)C(c2cc(OC)ccc2OC)N1C(=O)CCl [Compound 2h, Methyl (1R,3S)-1-(2,5-dimethoxyphenyl)-2-(2-chloroacetyl)-2,3,4,9-tetrahydro-4H-β-carboline-3-carboxylate]	0.04 µM	0.29 µM	> 10 µM	3.95 µM	5.59 µM	228 to 230 °C	–	–	–	–
COC(=O)C1Cc2c([nH]c3ccccc23)C(c2c(Cl)cccc2Cl)N1C(=O)CCl [Compound 2q, (1R,3R) Methyl 1-(2,6-dichlorophenyl)-2-(2-chloroacetyl)-2,3,4,9-tetrahydro 1H-β-carboline-3-carboxylate]	–	–	–	–	1.5 µM	147 to 150 °C	99 +/− 0.01%	0.05 µM	0.04 µM	–
COC(=O)C1Cc2c([nH]c3ccccc23)C(c2c(Cl)cccc2Cl)N1C(=O)CCl [Compound 2r, (1S,3S) Methyl 1-(2,6-dichlorophenyl)-2-(2-chloroacetyl)-2,3,4,9-tetrahydro-1H-β-carboline-3-carboxyl]	–	–	–	–	–	153 to 156 °C	24 +/− 0.54%	0.42 µM	0.44 µM	1 µM
